Data published in US4196205A, “3-Acetoxymethyl-7-(iminoacetamido)-cephalosporanic acid derivatives” (priority 1976, dated 1980).
Converted amounts (≈) assume the structure as drawn. Where two headings read alike, the source gives them in different places.

Tests used:
[1] = system: Escherichia Coli (T) O26 B6; test: Experimental infection with Escherichia Coli (T) O26 B6 in mice (21.5 g, culture diluted 1/6); format: in vivo, male mice
Description: (§1) The product of Example 4 was studied for its activity against an experimental infection of Escherichia Coli in groups of 10 male mice weighing about 21.5 g. The mice recieved an intraperitoneal injection of 0.5 ml of a 24 hour old culture in a nutritive media of Escherichia Coli (T) O26 B6 of the Pasteur Institute diluted 1/6 with distilled water. The test product was administered subcutaneously or orally 1 hour and 5 and 24 hours after the infection and the number of dead was determined after 8 days.

[2] = system: Escherichia Coli (T) O26 B6; test: Experimental infection with Escherichia Coli (T) O26 B6 in mice, repeated (22.5 g, culture diluted 1/5.5); format: in vivo
Description: as §1
The procedure was repeated with mice weighing about 22.5 g with an intraperitoneal injection of a 24 hour old culture of Escherichia Coli (T) O26 B6 diluted 1/5.5 with distilled water with the product of Example 4.

[3] = system: Streptococcus pyogenes A 561; test: MIC, dilution in liquid medium; format: cell-based
Method in brief: (§2)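 Liquid-medium dilution: equal nutrient broth per tube, graded compound doses, strain inoculated; 24–48 h, 37° C; MIC (g/ml) read by transillumination.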

[4] = system: Escherichia Coli Sensible Tetracycline ATCC 9 637 = 1020; test: MIC, dilution in liquid medium; format: cell-based
Method in brief: as §2

[5] = system: Staphylococcus aureus exp. n° 54 146; test: MIC, dilution in liquid medium; format: cell-based; details: Staphylococcus aureus
Method in brief: as §2

[6] = system: Staphylococcus aureus UC 1 128 Pen-Resistant; test: MIC, dilution in liquid medium; format: cell-based; details: Staphylococcus aureus
Method in brief: as §2

[7] = system: Staphylococcus aureus ATCC 5 638 Pen-Sensible = UC 1061; test: MIC, dilution in liquid medium; format: cell-based; details: read-out: M.I.C.
Method in brief: as §2

Enterobacter cloacae 681 = test: MIC, dilution in liquid medium; format: cell-based
Method in brief: as §2

[8] = system: Bacillus subtilis ATCC 6 633; test: MIC, dilution in liquid medium; format: cell-based
Method in brief: as §2

Escherichia Coli Galle = test: MIC, dilution in liquid medium; format: cell-based
Method in brief: as §2

[9] = system: Klebsiella pneumoniae Exp. 52 145; test: MIC, dilution in liquid medium; format: cell-based; details: Klebsiella pneumoniae, read-out: M.I.C.
Method in brief: as §2

[10] = system: Serratia Resistant Gentamicine 2 532; test: MIC, dilution in liquid medium; format: cell-based; details: read-out: M.I.C.
Method in brief: as §2

[11] = system: Escherichia Coli Resistant Gentamicine, Tobramycine R 55 123 D; test: MIC, dilution in liquid medium; format: cell-based
Method in brief: as §2

[12] = system: Proteus vulgaris (indol+) A 232; test: MIC, dilution in liquid medium; format: cell-based
Method in brief: as §2

[13] = system: Salmonella typhimurium 420; test: MIC, dilution in liquid medium; format: cell-based; details: Salmonella enterica, TYPHIMURIUM, read-out: M.I.C.
Method in brief: as §2

Escherichia Coli 25 575 = test: MIC, dilution in liquid medium; format: cell-based
Method in brief: as §2

Pseudomonas 8951 RGT = test: MIC, dilution in liquid medium; format: cell-based
Method in brief: as §2

[14] = system: Proteus mirabilis (indol-) A 235; test: MIC, dilution in liquid medium; format: cell-based; details: Proteus mirabilis, read-out: M.I.C.
Method in brief: as §2

Straphylococcus Smith = test: MIC, dilution in liquid medium; format: cell-based
Method in brief: as §2

[15] = system: Escherichia Coli T 96 875; test: MIC, dilution in liquid medium; format: cell-based
Method in brief: as §2

[16] = system: Escherichia Coli Resistant Tetracycline ATCC 11 303 = UC 1261; test: MIC, dilution in liquid medium; format: cell-based; details: Escherichia coli, read-out: M.I.C.
Method in brief: as §2

[17] = system: Streptococcus faecalis 5 432; test: MIC, dilution in liquid medium; format: cell-based
Method in brief: as §2

[18] = system: Streptococcus faecalis 99 F 74; test: MIC, dilution in liquid medium; format: cell-based; details: Enterococcus faecalis
Method in brief: as §2

[19] = system: Escherichia Coli Exp. TO26 B6; test: MIC, dilution in liquid medium; format: cell-based; details: Escherichia coli, 48 h
Method in brief: as §2

[20] = system: Klebsiella pneumoniae 2 536 Resistant Gentamicine; test: MIC, dilution in liquid medium; format: cell-based
Method in brief: as §2

Escherichia Coli E6 = test: MIC, dilution in liquid medium; format: cell-based
Method in brief: as §2

Providencia Du 48 = test: MIC, dilution in liquid medium; format: cell-based
Method in brief: as §2

[21] = system: Pseudomonas 3 935 Exp. SG; test: MIC, dilution in liquid medium; format: cell-based; details: Pseudomonas, 3935EXP.SG
Method in brief: as §2

CO/N=C(\C(=O)N[C@@H]1C(=O)N2C(C(=O)O)=C(COC(C)=O)CS[C@H]12)c1csc(N)n1 [Example 4, 3-acetoxymethyl-7-[2-(2-amino-4-thiazolyl)-2-methoxyiminoacetamido]-ceph-3-eme-4-carboxylic acid]
mice alive after 8 days ([1]; 0.05 mg subcutaneously): 10/10 | deaths after 28.5 h (out of 10 mice) ([1]; 0.1 mg orally): 1 | mice alive after 8 days ([1]; 0.1 mg orally): 9/10 | mice alive after 8 days ([1]; 0.1 mg subcutaneously (first line)): 10/10 | mice alive after 8 days ([1]; 0.1 mg subcutaneously (second line)): 10/10 | mice alive after 8 days ([1]; 0.25 mg orally): 10/10 | mice alive after 8 days ([1]; 0.25 mg subcutaneously): 10/10 | mice alive after 8 days ([1]; 0.5 mg orally): 10/10 | MORTALITY AFTER 9H 35 ([2]; 0,1 mg OS): 1 | MORTALITY AFTER 24H ([2]; 0,1 mg OS): 1 | MORTALITY AFTER 32H ([2]; 0,1 mg OS): 2 | MORTALITY AFTER 70H ([2]; 0,1 mg OS): 1 | Mice alive on the 8th Day ([2]; 0,1 mg OS): 5/10 | MORTALITY AFTER 22H 30 ([2]; 0,05 mg OS): 4 | MORTALITY AFTER 24H ([2]; 0,05 mg OS): 1 | MORTALITY AFTER 31H ([2]; 0,05 mg OS): 1 | MORTALITY AFTER 32H ([2]; 0,05 mg OS): 2 | Mice alive on the 8th Day ([2]; 0,05 mg OS): 2/10 | Mice alive on the 8th Day ([2]; 0,05 mg S.C.): 10/10 | Mice alive on the 8th Day ([2]; 0,25 mg OS): 10/10 | MORTALITY AFTER 22H 30 ([2]; 0,015 mg S.C.): 2 | MORTALITY AFTER 23H 50 ([2]; 0,015 mg S.C.): 2 | MORTALITY AFTER 46H 30 ([2]; 0,015 mg S.C.): 2 | Mice alive on the 8th Day ([2]; 0,015 mg S.C.): 4/10 | MORTALITY AFTER 4j ([2]; 0,025 mg S.C.): 2 | MORTALITY AFTER 25H 50 ([2]; 0,025 mg S.C.): 1 | MORTALITY AFTER 26H 30 ([2]; 0,025 mg S.C.): 1 | Mice alive on the 8th Day ([2]; 0,025 mg S.C.): 6/10 | M.I.C. ([3]; 48 H): 0,05 μg/ml | MIC ([3]; Streptococcus pyogenes, A561, 24 h, 24 H, read-out: M.I.C.): 0.02 µg/mL (≈ 0.0439 µM) | M.I.C. ([4]; 48 H): 0,2 μg/ml | MIC ([4]; Escherichia coli, ATCC9, 24 h, 24 H, read-out: M.I.C.): 0.2 µg/mL (≈ 0.439 µM) | MIC ([5]; 24 h, read-out: M.I.C.): 3 µg/mL (≈ 6.59 µM) | MIC ([5]; 48 h): 3 µg/mL (≈ 6.59 µM) | MIC ([6]; UC1, 24 h, 24 H): 2 µg/mL (≈ 4.39 µM) | MIC ([6]; UC1, 48 h, 48 H): 2 µg/mL (≈ 4.39 µM) | MIC ([7]; 24 h): 1 µg/mL (≈ 2.2 µM) | MIC ([7]; 48 h): 1 µg/mL (≈ 2.2 µM) | MIC (Enterobacter cloacae 681; Enterobacter cloacae, 681, 24 h): 40 µg/mL (≈ 87.8 µM) | MIC (Enterobacter cloacae 681; Enterobacter cloacae, 681, 48 h): 40 µg/mL (≈ 87.8 µM) | M.I.C. ([8]; 24 H): 0,2 μg/ml | MIC ([8]; Bacillus subtilis, ATCC6, 48 h, 48 H, read-out: M.I.C.): 1 µg/mL (≈ 2.2 µM) | MIC (Escherichia Coli Galle; 24 h): 0.1 µg/mL (≈ 0.22 µM) | MIC (Escherichia Coli Galle; 48 h): 0.2 µg/mL (≈ 0.439 µM) | MIC ([9]; EXP.52145, 24 h, 24 H): 0.02 µg/mL (≈ 0.0439 µM) | MIC ([9]; EXP.52145, 48 h, 48 H): 0.02 µg/mL (≈ 0.0439 µM) | MIC ([10]; 24 h): 1 µg/mL (≈ 2.2 µM) | MIC ([10]; 48 h): 1 µg/mL (≈ 2.2 µM) | M.I.C. ([11]; 24 H): 0,6 μg/ml | M.I.C. ([11]; 48 H): 0,6-1 μg/ml | M.I.C. ([12]; 24 H): 2 µg/mL | M.I.C. ([12]; 48 H): 40 µg/mL | MIC ([13]; 24 h): 0.2 µg/mL (≈ 0.439 µM) | MIC ([13]; 48 h): 0.2 µg/mL (≈ 0.439 µM) | MIC (Escherichia Coli 25 575; COLI25575, 24 h): 0.05 µg/mL (≈ 0.11 µM) | MIC (Escherichia Coli 25 575; COLI25575, 48 h): 0.05 µg/mL (≈ 0.11 µM) | MIC (Pseudomonas 8951 RGT; 24 h): 40 µg/mL (≈ 87.8 µM) | MIC (Pseudomonas 8951 RGT; 48 h): > 40 µg/mL | MIC ([14]; 24 h): 0.02 µg/mL (≈ 0.0439 µM) | MIC ([14]; 48 h): 0.02 µg/mL (≈ 0.0439 µM) | MIC (Straphylococcus Smith; 24 h): 1 µg/mL (≈ 2.2 µM) | MIC (Straphylococcus Smith; 48 h): 1 µg/mL (≈ 2.2 µM) | MIC ([15]; COLIT96875, 24 h): 0.05 µg/mL (≈ 0.11 µM) | MIC ([15]; COLIT96875, 48 h): 0.05 µg/mL (≈ 0.11 µM) | MIC ([16]; 24 h): 0.02 µg/mL (≈ 0.0439 µM) | MIC ([16]; 48 h): 0.02 µg/mL (≈ 0.0439 µM) | MIC ([17]; Enterococcus faecalis, 5432, 24 h, 24 H): 2 µg/mL (≈ 4.39 µM) | MIC ([17]; Enterococcus faecalis, 5432, 48 h, 48 H): 2 µg/mL (≈ 4.39 µM) | MIC ([18]; 99F74, 24 h, 24 H): 2 µg/mL (≈ 4.39 µM) | MIC ([18]; 99F74, 48 h, 48 H): 3 µg/mL (≈ 6.59 µM) | MIC [19]: 0.1 µg/mL (≈ 0.22 µM) | M.I.C. ([20]; 24 H): 0,6 μg/ml | M.I.C. ([20]; 48 H): 0,6 μg/ml | MIC (Escherichia Coli E6; COLIE6, 24 h): 0.05 µg/mL (≈ 0.11 µM) | MIC (Escherichia Coli E6; COLIE6, 48 h): 0.05 µg/mL (≈ 0.11 µM) | M.I.C. (Providencia Du 48; 24 H): 5 µg/mL | M.I.C. (Providencia Du 48; 48 H): 5 µg/mL | MIC ([21]; 24 h, read-out: M.I.C.): 10 µg/mL (≈ 22 µM) | MIC ([21]; 48 h): 40 µg/mL (≈ 87.8 µM)
